Test results as given in ChEMBL document CHEMBL1142260, “Acylguanidine inhibitors of beta-secretase: optimization of the pyrrole ring substituents extending into the S1' substrate binding pocket” (Bioorg Med Chem Lett, 2008).

How the values were obtained:
Beta-secretase 1 [1] = target: T1, Beta-secretase 1 (Homo sapiens, UniProt P56817); assay: Inhibition of BACE1
[2] = Selectivity for BACE1 over cathepsin D
CHO = assay: Cytotoxicity against human CHO cells; assay type: functional; conditions: Cricetulus griseus, read-out: LD50 (the source's name)
Cathepsin D = Cathepsin D (Homo sapiens, UniProt P07339); assay: Inhibition of cathepsin D
Sequence of Cathepsin D (P07339 65-162 limits assumed): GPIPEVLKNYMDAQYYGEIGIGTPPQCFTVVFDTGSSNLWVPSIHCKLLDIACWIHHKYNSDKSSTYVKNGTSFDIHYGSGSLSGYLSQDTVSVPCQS
Sequence of Cathepsin D (P07339 169-412 limits assumed): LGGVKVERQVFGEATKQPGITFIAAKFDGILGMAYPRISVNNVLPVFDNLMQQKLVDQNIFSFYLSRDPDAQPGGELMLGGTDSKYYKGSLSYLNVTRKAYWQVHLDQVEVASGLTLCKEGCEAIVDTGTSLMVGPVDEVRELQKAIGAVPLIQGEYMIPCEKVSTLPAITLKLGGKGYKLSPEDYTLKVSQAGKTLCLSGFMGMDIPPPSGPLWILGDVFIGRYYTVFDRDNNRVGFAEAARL

Beta-secretase 1 [3] = target: T1, Beta-secretase 1; conditions: CHO
Beta-secretase 1 [4] = target: T1, Beta-secretase 1; assay: Inhibition of BACE1 at 2 uM

T1 sequence (P56817 whole entry): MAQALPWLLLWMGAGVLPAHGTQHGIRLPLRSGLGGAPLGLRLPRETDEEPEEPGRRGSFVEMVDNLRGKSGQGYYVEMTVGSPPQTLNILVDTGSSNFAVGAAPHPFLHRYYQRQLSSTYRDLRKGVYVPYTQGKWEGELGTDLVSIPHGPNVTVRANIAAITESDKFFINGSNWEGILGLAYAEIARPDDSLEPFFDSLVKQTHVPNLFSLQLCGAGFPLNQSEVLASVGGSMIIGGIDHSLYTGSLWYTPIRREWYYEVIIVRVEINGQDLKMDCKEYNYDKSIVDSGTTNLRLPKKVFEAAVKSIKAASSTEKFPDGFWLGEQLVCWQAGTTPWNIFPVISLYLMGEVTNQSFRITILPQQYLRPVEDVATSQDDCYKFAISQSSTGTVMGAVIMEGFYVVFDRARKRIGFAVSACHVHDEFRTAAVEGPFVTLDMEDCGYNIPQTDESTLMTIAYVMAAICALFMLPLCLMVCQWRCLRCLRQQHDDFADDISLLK

SMILES	IC50 (Beta-secretase 1 [1]) [µM]	IC50 (Cathepsin D) [µM]	inhibition (Beta-secretase 1 [4]) [%]	Ratio IC50 [2]	CC50 (CHO) [µM]	ED50 (Beta-secretase 1 [3]) [µM]
N/C(=N/C(=O)Cn1c(-c2ccccc2)ccc1C12CC3CC(CC(C3)C1)C2)NCCO	0.68	24.7		36	25	3.62
CCCOc1ccc(-c2ccc(-c3ccccc3Cl)n2CC(=O)NC(=N)NCCCO)cc1	0.121					
CCCOc1ccc(-c2ccc(-c3ccccc3Cl)n2CC(=O)/N=C(/N)NCCCn2ccnc2)cc1	0.241			30		3.1
CCCOc1ccc(-c2ccc(-c3ccccc3Cl)n2CC(=O)/N=C(/N)NCCC2OCCO2)cc1	0.269			13		1.34
CCCOc1ccc(-c2ccc(-c3ccccc3Cl)n2CC(=O)/N=C(/N)NCc2cccs2)cc1	0.752			0.7		10.7
Cc1nnc(CN/C(N)=N\C(=O)Cn2c(-c3ccccc3)ccc2C23CC4CC(CC(C4)C2)C3)o1		3.01			22	9.48
CCCOc1ccc(-c2ccc(-c3ccccc3Cl)n2CC(=O)/N=C(/N)N[C@H]2CC[C@H](C(=O)O)CC2)cc1	0.078			7.3		10.4
CCCOc1ccc(-c2ccc(-c3ccccc3Cl)n2CC(=O)/N=C(/N)NCCCO)cc1				85		1.18
N/C(=N/C(=O)Cn1c(-c2ccccc2)ccc1C12CC3CC(CC(C3)C1)C2)NCc1cccc(N)c1				1.9	8	4.81
N/C(=N/C(=O)Cn1c(-c2ccccc2)ccc1C12CC3CC(CC(C3)C1)C2)NCC(O)CO (centres undefined)				137	88	21.1
N/C(=N/C(=O)Cn1c(-c2ccccc2)ccc1C12CC3CC(CC(C3)C1)C2)NCCCCO				25	31	4.15
N/C(=N/C(=O)Cn1c(-c2ccccc2)ccc1C12CC3CC(CC(C3)C1)C2)NCCCO		19.9		83	35	1.84
N/C(=N/C(=O)Cn1c(-c2ccccc2)ccc1C12CC3CC(CC(C3)C1)C2)NC1CCCCC1				7.5	50	18.7
C[C@H](O)CN/C(N)=N\C(=O)Cn1c(-c2ccccc2)ccc1C12CC3CC(CC(C3)C1)C2				57	100	17.8
CCCOc1ccc(-c2ccc(-c3ccccc3Cl)n2CC(=O)/N=C(/N)NCCC(N)=O)cc1				55		
CCCOc1ccc(-c2ccc(-c3ccccc3Cl)n2CC(=O)/N=C(/N)NCc2ccco2)cc1				2.5		9.1
N/C(=N/C(=O)Cn1c(-c2ccccc2)ccc1C12CC3CC(CC(C3)C1)C2)NCCCn1ccnc1				> 15	45	9.16
N/C(=N/C(=O)Cn1c(-c2ccccc2)ccc1C12CC3CC(CC(C3)C1)C2)NCCc1ccsc1					2	1.69
C[C@@H](O)CN/C(N)=N\C(=O)Cn1c(-c2ccccc2)ccc1C12CC3CC(CC(C3)C1)C2	0.437	12.5		28	79	9.51
N#CCCCN/C(N)=N\C(=O)Cn1c(-c2ccccc2)ccc1C12CC3CC(CC(C3)C1)C2				17	59	4.4
N/C(=N/C(=O)Cn1c(-c2ccccc2)ccc1C12CC3CC(CC(C3)C1)C2)N[C@H]1CC[C@H](O)CC1	0.283				14	1.44
CCCOc1ccc(-c2ccc(-c3ccccc3Cl)n2CC(=O)NC(=N)NCc2ccco2)cc1	0.558					
N#CCCN/C(N)=N\C(=O)Cn1c(-c2ccccc2)ccc1C12CC3CC(CC(C3)C1)C2	0.31	12.2		39	16	3.44
CCCOc1ccc(-c2ccc(-c3ccccc3Cl)n2CC(=O)NC(=N)NCc2ccc(F)c(F)c2F)cc1	0.203					
Cc1csc(CN/C(N)=N\C(=O)Cn2c(-c3ccccc3)ccc2C23CC4CC(CC(C4)C2)C3)n1					8	3.97
CCCOc1ccc(-c2ccc(-c3ccccc3Cl)n2CC(=O)/N=C(/N)NCc2ccc(F)c(F)c2F)cc1				0.5		5.27
N/C(=N/C(=O)Cn1c(-c2ccccc2)ccc1C12CC3CC(CC(C3)C1)C2)NCCc1cccs1		0.476			3	2
CCCOc1ccc(-c2ccc(-c3ccccc3Cl)n2CC(=O)/N=C(/N)NCCC(=O)O)cc1				> 45		
NC(N)=NC(=O)Cn1c(-c2ccccc2)ccc1C12CC3CC(CC(C3)C1)C2		25		69	> 25	8.9
N=C(NC(=O)Cn1c(-c2ccccc2)ccc1C12CC3CC(CC(C3)C1)C2)NC1CCCCC1	7.2	54.2				

Continued, in another order:

IC50 (Beta-secretase 1 [1]) [µM]	IC50 (Cathepsin D) [µM]	inhibition (Beta-secretase 1 [4]) [%]	SMILES	Ratio IC50 [2]	CC50 (CHO) [µM]	ED50 (Beta-secretase 1 [3]) [µM]
0.942	54.1		C[C@H](O)CNC(=N)NC(=O)Cn1c(-c2ccccc2)ccc1C12CC3CC(CC(C3)C1)C2			
0.125			CCCOc1ccc(-c2ccc(-c3ccccc3Cl)n2CC(=O)/N=C(/N)N[C@H]2CC[C@H](O)CC2)cc1	110		1.28
0.651			CCCOc1ccc(-c2ccc(-c3ccccc3Cl)n2CC(=O)/N=C(/N)NCc2ccc(O)c(OC)c2)cc1	1		5.45
	0.599		N=C(NCCc1ccsc1)NC(=O)Cn1c(-c2ccccc2)ccc1C12CC3CC(CC(C3)C1)C2			
0.536	73.5		N=C(NCC(O)CO)NC(=O)Cn1c(-c2ccccc2)ccc1C12CC3CC(CC(C3)C1)C2 (centres undefined)			
0.137			CCCOc1ccc(-c2ccc(-c3ccccc3Cl)n2CC(=O)/N=C(/N)NCCCC(N)=O)cc1	70		4.14
0.124			CCCOc1ccc(-c2ccc(-c3ccccc3Cl)n2CC(=O)/N=C(/N)NCC(O)CO)cc1 (centres undefined)	81		5.27
	0.144		Cc1csc(CNC(=N)NC(=O)Cn2c(-c3ccccc3)ccc2C23CC4CC(CC(C4)C2)C3)n1			
0.255	4.25		N#CCCCNC(=N)NC(=O)Cn1c(-c2ccccc2)ccc1C12CC3CC(CC(C3)C1)C2			
0.203			CCCOc1ccc(-c2ccc(-c3ccccc3Cl)n2CC(=O)/N=C(/N)NCC(C)(C)CO)cc1	15		5.27
1.71	> 25		N=C(NCCCn1ccnc1)NC(=O)Cn1c(-c2ccccc2)ccc1C12CC3CC(CC(C3)C1)C2			
		43	N/C(=N\C(=O)Cn1c(-c2ccccc2)ccc1-c1ccccc1)NCc1ccc(F)c(F)c1F			
0.278			CCCOc1ccc(-c2ccc(-c3ccccc3Cl)n2CC(=O)NC(=N)NCCC(=O)O)cc1			
0.255	6.45		N/C(=N\C(=O)Cn1c(-c2ccccc2)ccc1C12CC3CC(CC(C3)C1)C2)NCCCCO			
0.744	1.38		N=C(NCc1cccc(N)c1)NC(=O)Cn1c(-c2ccccc2)ccc1C12CC3CC(CC(C3)C1)C2			
0.321			CCCOc1ccc(-c2ccc(-c3ccccc3Cl)n2CC(=O)/N=C(/N)NCCCSC)cc1	3.9		1.23
0.172			CCCOc1ccc(-c2ccc(-c3ccccc3Cl)n2CC(=O)NC(=N)NCCC(N)=O)cc1			
0.13			CCCOc1ccc(-c2ccc(-c3ccccc3Cl)n2CC(=O)/N=C(/N)NCCCC(=O)O)cc1	45		
